This is an account of results in patent US10045983B2, “Heteroaryl pyridone and aza-pyrodine compounds” (Genentech, Inc., priority 2011, dated 2018).

The assay is described as follows: CD69 Whole Blood Assay (CD69 Hu Blood FACS). It counts as cell-based, human. Conditions: Lymphocyte; human whole blood, anti-IgM activated B lymphocytes, FACS; IC70; Table 2 (unit inferred); read-out: CD69 Hu Blood FACS (IC70). Summed up: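 Compounds tested for blocking B-cell CD69 induction by flow cytometry in human whole blood, with activation via anti-human IgM goat F(ab′)2 crosslinking of surface IgM.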

On to `COCCN1CCn2nc(Nc3cc(-c4ccnc(N5CCc6c(sc7c6CC(C)(C)C7)C5=O)c4CO)cn(C)c3=O)cc2C1` [Example 308, 3-[3-(hydroxymethyl)-4-[5-[[5-(2-methoxyethyl)-6,7-dihydro-4H-pyrazolo[1,5-a]pyrazin-2-yl]amino]-1-methyl-6-oxo-3-pyridyl]-2-pyridyl]-7,7-dimethyl-1,2,6,8-tetrahydrocyclopenta[3,4]thieno[1,3-c]pyridin-4-one], for which the IC70 (commonly the point of the concentration-response curve where the effect stands at 70%) came out at 54.6 nM.

Turning to `COCCCN1CCn2nc(Nc3cc(-c4ccnc(N5CCn6c(cc7c6CC(C)(C)C7)C5=O)c4CO)cn(C)c3=O)cc2C1` [Example 309, 3-[3-(hydroxymethyl)-4-[5-[[5-(3-methoxypropyl)-6,7-dihydro-4H-pyrazolo[1,5-a]pyrazin-2-yl]amino]-1-methyl-6-oxo-3-pyridyl]-2-pyridyl]-7,7-dimethyl-1,2,6,8-tetrahydrocyclopenta[3,4]pyrrolo[3,5-b]pyrazin-4-one], the IC70 is 39.8 nM.

Turning to `Cc1cc(Nc2cc(-c3ccnc(N4CCn5c(cc6c5CC(C)(C)C6)C4=O)c3CO)cn(C)c2=O)ns1` [Example 310, 3-[3-(hydroxymethyl)-4-[1-methyl-5-[(5-methylisothiazol-3-yl)amino]-6-oxo-3-pyridyl]-2-pyridyl]-7,7-dimethyl-1,2,6,8-tetrahydrocyclopenta[3,4]pyrrolo[3,5-b]pyrazin-4-one], the IC70 amounted to 119 nM.

In the case of `Cn1cc(-c2ccnc(N3CCn4c(cc5c4CC(C)(C)C5)C3=O)c2CO)cc(Nc2cc(C3CC3)on2)c1=O` [Example 311, 3-[4-[5-[(5-cyclopropylisoxazol-3-yl)amino]-1-methyl-6-oxo-3-pyridyl]-3-(hydroxymethyl)-2-pyridyl]-7,7-dimethyl-1,2,6,8-tetrahydrocyclopenta[3,4]pyrrolo[3,5-b]pyrazin-4-one], the IC70 is 158 nM.

Consider `Cc1cc(Nc2cc(-c3ccnc(N4CCn5c(cc6c5CC(C)(C)C6)C4=O)c3CO)cn(C)c2=O)nn1C1COC1` [Example 312, 3-[3-(hydroxymethyl)-4-[1-methyl-5-[[5-methyl-1-(oxetan-3-yl)pyrazol-3-yl]amino]-6-oxo-3-pyridyl]-2-pyridyl]-7,7-dimethyl-1,2,6,8-tetrahydrocyclopenta[3,4]pyrrolo[3,5-b]pyrazin-4-one], for which the IC70 came out at 5600 nM.

`CN1Cc2cc(Nc3cc(-c4ccnc(N5CCn6c(cc7c6CC(C)(C)C7)C5=O)c4CO)cn(C)c3=O)nn2CC1=O` [Example 313, 3-[3-(hydroxymethyl)-4-[1-methyl-5-[(5-methyl-6-oxo-4,7-dihydropyrazolo[1,5-a]pyrazin-2-yl)amino]-6-oxo-3-pyridyl]-2-pyridyl]-7,7-dimethyl-1,2,6,8-tetrahydrocyclopenta[3,4]pyrrolo[3,5-b]pyrazin-4-one]: the IC70 was 19.1 nM.

Consider `Cn1cc(-c2ccnc(N3CCn4c(cc5c4CC(C)(C)C5)C3=O)c2CO)cc(Nc2ccc(N3CC(O)C3)cn2)c1=O` [Example 314, 3-[4-[5-[[5-(3-hydroxyazetidin-1-yl)-2-pyridyl]amino]-1-methyl-6-oxo-3-pyridyl]-3-(hydroxymethyl)-2-pyridyl]-7,7-dimethyl-1,2,6,8-tetrahydrocyclopenta[3,4]pyrrolo[3,5-b]pyrazin-4-one], for which the IC70 was found to be 44.6 nM.

On to `Cn1nc(Nc2cc(-c3ccnc(N4CCn5c(cc6c5CC(C)(C)C6)C4=O)c3CO)cn(C)c2=O)cc1C(=O)N1CCCC1` [Example 315, 3-[3-(hydroxymethyl)-4-[1-methyl-5-[[1-methyl-5-(pyrrolidine-1-carbonyl)pyrazol-3-yl]amino]-6-oxo-3-pyridyl]-2-pyridyl]-7,7-dimethyl-1,2,6,8-tetrahydrocyclopenta[3,4]pyrrolo[3,5-b]pyrazin-4-one], for which the IC70 was found to be 15 nM.

`COCc1cc(Nc2cc(-c3ccnc(N4CCn5c(cc6c5CC(C)(C)C6)C4=O)c3CO)cn(C)c2=O)nn1C` [Example 316, 3-[3-(hydroxymethyl)-4-[5-[[5-(methoxymethyl)-1-methyl-pyrazol-3-yl]amino]-1-methyl-6-oxo-3-pyridyl]-2-pyridyl]-7,7-dimethyl-1,2,6,8-tetrahydrocyclopenta[3,4]pyrrolo[3,5-b]pyrazin-4-one]: the 70% effect concentration (IC70) worked out at 20.2 nM.

Turning to `CN1Cc2cc(Nc3cc(-c4ccnc(N5CCc6c(sc7c6CC(C)(C)C7)C5=O)c4CO)cn(C)c3=O)nn2CC1=O` [Example 317, 3-[3-(hydroxymethyl)-4-[1-methyl-5-[(5-methyl-6-oxo-4,7-dihydropyrazolo[1,5-a]pyrazin-2-yl)amino]-6-oxo-3-pyridyl]-2-pyridyl]-7,7-dimethyl-1,2,6,8-tetrahydrocyclopenta[3,4]thieno[1,3-c]pyridin-4-one], the IC70 amounted to 58.6 nM.

As for `C[C@@H]1c2cc(Nc3cc(-c4ccnc(N5CCn6c(cc7c6CC(C)(C)C7)C5=O)c4CO)cn(C)c3=O)nn2CCN1C` [Example 318, (R)-2-(5-((4,5-dimethyl-4,5,6,7-tetrahydropyrazolo[1,5-a]pyrazin-2-yl)amino)-3′-(hydroxymethyl)-1-methyl-6-oxo-1,6-dihydro-[3,4′-bipyridin]-2′-yl)-7,7-dimethyl-2,3,4,6,7,8-hexahydro-1H-cyclopenta[4,5]pyrrolo[1,2-a]pyrazin-1-one], the 70% effect concentration (IC70) is 108 nM.

`C[C@H]1c2cc(Nc3cc(-c4ccnc(N5CCn6c(cc7c6CC(C)(C)C7)C5=O)c4CO)cn(C)c3=O)nn2CCN1C` [Example 319, (S)-2-(5-((4,5-dimethyl-4,5,6,7-tetrahydropyrazolo[1,5-a]pyrazin-2-yl)amino)-3′-(hydroxymethyl)-1-methyl-6-oxo-1,6-dihydro-[3,4′-bipyridin]-2′-yl)-7,7-dimethyl-2,3,4,6,7,8-hexahydro-1H-cyclopenta[4,5]pyrrolo[1,2-a]pyrazin-1-one]: the IC70 amounted to 16.7 nM.

Regarding `C[C@@H]1COC[C@H](C)N1C(=O)c1ccc(Nc2cc(-c3ccnc(N4CCn5c(cc6c5CC(C)(C)C6)C4=O)c3CO)cn(C)c2=O)nc1` [Example 320, 3-[4-[5-[[5-[(3S,5R)-3,5-dimethylmorpholine-4-carbonyl]-2-pyridyl]amino]-1-methyl-6-oxo-3-pyridyl]-3-(hydroxymethyl)-2-pyridyl]-7,7-dimethyl-1,2,6,8-tetrahydrocyclopenta[3,4]pyrrolo[3,5-b]pyrazin-4-one], the IC70 turned out to be 46.8 nM.

As to `C[C@@H]1COC[C@H](C)N1C(=O)c1ccc(Nc2cc(-c3ccnc(N4CCn5c(cc6c5CC(C)(C)C6)C4=O)c3CO)nn(C)c2=O)nc1` [Example 321, 3-[4-[5-[[5-[(3 S,5R)-3,5-dimethylmorpholine-4-carbonyl]-2-pyridyl]amino]-1-methyl-6-oxo-pyridazin-3-yl]-3-(hydroxymethyl)-2-pyridyl]-7,7-dimethyl-1,2,6,8-tetrahydrocyclopenta[3,4]pyrrolo[3,5-b]pyrazin-4-one], the IC70 was determined as 112 nM.

Take `C[C@@H]1COC[C@H](C)N1C(=O)c1ccc(Nc2cc(-c3ccnc(N4CCn5c(cc6c5CCCC6)C4=O)c3CO)cn(C)c2=O)nc1` [Example 322, 2-[4-[5-[[5-[(3S,5R)-3,5-dimethylmorpholine-4-carbonyl]-2-pyridyl]amino]-1-methyl-6-oxo-3-pyridyl]-3-(hydroxymethyl)-2-pyridyl]-3,4,6,7,8,9-hexahydropyrazino[1,2-a]indol-1-one]: the IC70 was 79.6 nM.

As to `COC1CN(c2ccc(Nc3cc(-c4ccnc(N5CCn6c(cc7c6CC(C)(C)C7)C5=O)c4CO)cn(C)c3=O)nc2)C1` [Example 323, 3-[3-(hydroxymethyl)-4-[5-[[5-(3-methoxyazetidin-1-yl)-2-pyridyl]amino]-1-methyl-6-oxo-3-pyridyl]-2-pyridyl]-7,7-dimethyl-1,2,6,8-tetrahydrocyclopenta[3,4]pyrrolo[3,5-b]pyrazin-4-one], the IC70 turned out to be 279 nM.

As to `C[C@H]1COC[C@H](C)N1C(=O)c1ccc(Nc2cc(-c3ccnc(N4CCn5c(cc6c5CC(C)(C)C6)C4=O)c3CO)nn(C)c2=O)nc1` [Example 324, 3-[4-[5-[[5-[(3 S,5 S)-3,5-dimethylmorpholine-4-carbonyl]-2-pyridyl]amino]-1-methyl-6-oxo-pyridazin-3-yl]-3-(hydroxymethyl)-2-pyridyl]-7,7-dimethyl-1,2,6,8-tetrahydrocyclopenta[3,4]pyrrolo[3,5-b]pyrazin-4-one], the IC70 is 85.8 nM.

For the compound `Cc1nn(C)c2cnc(Nc3cc(-c4ccnc(N5CCn6c(cc7c6CC(C)(C)C7)C5=O)c4CO)cn(C)c3=O)cc12` [Example 325, 3-[4-[5-[(1,3-dimethylpyrazolo[3,4-c]pyridin-5-yl)amino]-1-methyl-6-oxo-3-pyridyl]-3-(hydroxymethyl)-2-pyridyl]-7,7-dimethyl-1,2,6,8-tetrahydrocyclopenta[3,4]pyrrolo[3,5-b]pyrazin-4-one], the 70% effect concentration (IC70) stood at 1400 nM.

Turning to `Cc1c2cc(Nc3cc(-c4ccnc(N5CCn6c(cc7c6CC(C)(C)C7)C5=O)c4CO)cn(C)c3=O)ncc2nn1C` [Example 326, 3-[4-[5-[(2,3-dimethylpyrazolo[3,4-c]pyridin-5-yl)amino]-1-methyl-6-oxo-3-pyridyl]-3-(hydroxymethyl)-2-pyridyl]-7,7-dimethyl-1,2,6,8-tetrahydrocyclopenta[3,4]pyrrolo[3,5-b]pyrazin-4-one], the IC70 was determined as 1400 nM.

In the case of `COCCN1CCn2nc(Nc3cc(-c4ccnc(N5CCn6c(cc7c6CC(C)(C)C7)C5=O)c4CO)c(C)n(C)c3=O)cc2C1` [Example 327, 3-[3-(hydroxymethyl)-4-[5-[[5-(2-methoxyethyl)-6,7-dihydro-4H-pyrazolo[1,5-a]pyrazin-2-yl]amino]-1,2-dimethyl-6-oxo-3-pyridyl]-2-pyridyl]-7,7-dimethyl-1,2,6,8-tetrahydrocyclopenta[3,4]pyrrolo[3,5-b]pyrazin-4-one], the IC70 is 2200 nM.

In the case of `COCCN1CCn2nc(Nc3cc(-c4cncc(N5CCn6c(cc7c6CC(C)(C)C7)C5=O)c4CO)cn(C)c3=O)cc2C1` [Example 328, 3-[4-(hydroxymethyl)-5-[5-[[5-(2-methoxyethyl)-6,7-dihydro-4H-pyrazolo[1,5-a]pyrazin-2-yl]amino]-1-methyl-6-oxo-3-pyridyl]-3-pyridyl]-7,7-dimethyl-1,2,6,8-tetrahydrocyclopenta[3,4]pyrrolo[3,5-b]pyrazin-4-one], the IC70 was 12.4 nM.
